Experimental data: patent publication US7355074B2, “Compounds having aromatic rings and side-chain amide-functionality and a method for transporting monovalent anions across biological membranes using the same” (The University of Maryland, priority 2003, dated 2008)
Marks after values point to notes of the source that are not given here.

Legend:
[1] = pH-assisted fluorimetric transport assay with calixarene amides (HPTS-loaded liposomes); format: biochemical
Experimental: The ability of 1 and 2 to mediate ion flux across a lipid bilayer was studied fluorimetrically. A solution of 1 or 2 was added to a suspension of EYPC large unilamellar vesicles (LUVs) containing the pH-sensitive dye pyranine. An NaOH solution was added to the extravesicular buffer to create a gradient of approximately one pH unit. The resulting electrostatic potential, caused by proton efflux from the liposomes, can be compensated by cation influx or anion efflux, as mediated by the exogenous ligand. Ion transport across the membrane was signaled by the increase in relative fluorescence that accompanied the rise in intravesicular pH.
Liposome Preparation. EYPC HPTS-Containing LUVs, egg yolk 1-α-phosphatidylcholine (EYPC, 60 mg, […]) was dissolved in a CHCl3MeOH mixture, the solution was evaporated under reduced pressure, and the resulting thin film was dried under high vacuum for 2 h. The lipid film was hydrated in 1.2 mL of phosphate buffer (10 mM sodium phosphage, pH=6.4, 75-100 mM MX, M=Na^+, K^+, Cs^+, X=[…], SO4^2−) containing 10 μM HPTS (pyranine 8-hydroxypyrene-1,3,6-trisulfonic acid trisodium salt) for 2 h. The LUV suspension (1 mL) was submitted to high-pressure extrusion at room temperature (2) extrusions through a 0.1 μM polycarbonate membrane afforded LUVs with a diameter of 100 nm). The LUV suspension was separated from extravesicular dye by size exclusion chromatography (SEC) stationary phase: Sephadex G-10, mobile phase:phosphate buffer) and diluted with the same phosphate buffer to give a stock solution with a lipid concentration of 11 mM (assuming 100% of lipid was incorporated into liposomes).
Fluorimetric Transport Assays. pH-Assisted Transport Assays. Typically, 100 μL of HPTS-loaded vesicles (stock solution) was suspended in 1.85 mL of the corresponding buffer and placed into a fluorimetric cell. HPTS emission at 510 nm was monitored with excitation wavelengths at 403 and 460 nm simultaneously. During the experiment, 20 μL of a 0-10 mM THF solution of the compound of interest was added through an injection port, followed by injection of 21 μL of 0.5 M aqueous NaOH. Addition of the NaOH caused a pH increase of approximately 1 pH unit in the extravesicular buffer. Maximal changes in dye emission were obtained at the end of each experiment by lysis of the liposomes with detergent (40 μL of 5% aqueous Triton x100). The final transport trace was obtained as a ratio of the emission intensities monitored at 460 and 403 nm and normalized to 100% of transport.

[2] = intravesicular pH of LUVs experiencing a Cl- gradient (calixarene amides); format: biochemical; conditions: NaCl-loaded LUVs in isosmotic Na2SO4 buffer
Experimental: FIG. 8 illustrates changes in intravesicular pH upon addition of calixarene tetrabutylamide and calixarene octabutylamide to NaCl^+ loaded vesicles suspended in a sulfate phosphate buffer (emission of HPTS is used to monitor the pH changes in LUVs). At t=60 s, 20 μL of 500 μM of calixarene tetrabutylamide 2 (top trace) or the octabutylamide 3 (bottom trace) was added to 1.95 mL of a LUV suspension to give 1:100 ligand:lipid molar ratio. At t=500 s, 40 μL of 5% Triton X-100 was added. Intravesicular pH values were obtained as a function of the ratio of HPTS emission intensities at 510 nm, when excited at […]. The calibration was performed by measuring the HPTS emission intensities and the pH values of a […] HPTS solution in 10 mM phosphate buffer containing 100 mM NaCl. The calibration equation obtained (pH=1.1684×log (I0I1)+6.9807, r=0.998, where I0 is the emission intensity with excitation at […]) was used to convert the emission intensities into actual pH values.
The pH reached its maximum 250 s after addition of 2 and held constant until the liposomes were lysed with detergent. […] In effect, compound 2 moves […] along with Cl^− down the chloride gradient, consequently building a pH gradient across the membrane. Therefore, NaCl filled vesicles lose Cl^− and H^+ upon addition of 2 and become more alkaline.
Calcein-Release Assay. Calcein-loaded vesicles (100 μL of the stock solution), filled with a saline phosphate buffer (10 mM sodium phosphate, pH 6.4, […] NaCl), were suspended in 1.85 mL of an isoosmotic phosphate sulfate buffer (10 mM sodium phosphate, pH 6.4^−75 mM (Na2SO4) and placed into a fluorimetric cell. HPTS emission at 510 nm was monitored with excitation wavelengths at 403 and 460 nm simultaneously. During the experiment, 20 μL of a 0-500 μM THF solution of the compound of interest was added through an injection port. Intravesicular pH values were obtained as a function of the ratio of HPTS emission intensities at 510 nm, when excited at 403 and 460 nm. […]

[3] = pH-stat fluorescent transport assay with oligophenoxyacetamides (HPTS-loaded liposomes); format: biochemical; conditions: 100 mM NaCl inside and outside; 50 μm (10 mol % ligand to lipid ratio)
Experimental: FIGS. 1A and 1B are derived from of pH-stat fluorescent assays with oligophenoxyacetamide compounds 1-6 described herein. Suspensions of EYPC LUVs containing the pH sensitive dye pyranine (ex 405 nm and 460 nm em 510 nm) in a phosphate buffer were used (0.5 mM of lipid, 10 mM NanH3-nPO4 n=1, 2, pH 6.4 100 mM NaCl inside and outside) (A) illustrates initial pseudo-first order rate constants in the presence of 5 μm of ionophores 1-6 (1 mol % injection of 20 μl of 0.5 mM DMSO solution of 1-6 into 1.9 mL of vesicular suspension was followed by injection of 21 μl of 0.5 M NaOH and final lysis of liposomes with Triton X-100; (B) illustrates initial pseudo-first order rate constants assessed for various concentrations of oligomeric ionophores 2-6. The same experimental protocol as in (A) was used. Legend for traces denotes use of oligocompounds 2, 3, 4, 5, 6.
Liposome Preparation for Fluorimetric Assays. Egg yolk L-α-phosphatidylcholine (EYPC ethanol solution, […], 79 μmol) was dissolved in a CHCl3/MeOH mixture, the solution was evaporated under reduced pressure and the resulting thin film was dried under high vacuum for 2 h. The lipid film was hydrated in 1.2 mL of phosphate buffer (10 mM sodium phosphate, pH=6.4, 75-100 mM MnX, M=N^+, K^+, X=Cl^−, SO4^2−, n=1,2) containing 10 μM HPTS (pyranine, 8-hydroxypyrene-1,3,6-trisulfonic acid trisodium salt) for 40 min. During hydration, the suspension was submitted to 5 freeze-thaw cycle (liquid nitrogen, water at rt). The large multilamellar liposome suspension (1 mL) was submitted to high-pressure extrusion at rt (21 extrusions through a 0.1 μm polycarbonate membrane afforded a suspension of LUVs with an average diameter of 100 nm). The LUV suspension was separated from extravesicular dye by size exclusion chromatography (SEC) (stationary phase: Sephadex G-10, mobile phase: phosphate buffer) and diluted with the same phosphate buffer to give a stock solution with a lipid concentration of 11 mM (assuming 100% of lipid was incorporated into liposomes).
pH-state transport assays. Typically, 100 μL of HPTS-loaded vesicles (stock solution) was suspended in 1.9 mL of the corresponding buffer and placed into a fluorimetric cell. The emission of HPTS at 510 nm was monitored with excitation wavelengths at 403 and 460 nm simultaneously. During the experiment, 20 μL of a 0-10 mM DMSO solution of the compounds of interest was added (through an injection port), followed by injection of 21 μL of 0.5 M aqueous NaOH. […] Maximal possible changes in dye emission were obtained at the end of each experiment by lysis of the liposomes with detergent (40 μL of 5% aqueous Triton X100). The final transport trace was obtained as a ratio of the emission intensities monitored at 460 and 403 nm and normalized to 100% of transport. Pseudo-first order rate constants were calculated from slopes of the plot of In([H^+ins]−[H^+out]) versus time, here [H^+ins] and [H^+out] are the intravesicular and extravesicular proton concentrations, respectively. The [H^+out] was assumed to remain constant over the course of the experiment, while [H^+ins] values were calculated for each point from the HPTS emission intensities according to the calibration equation pH=1.1684·log(Io/Il)+6.9807, where Io is the emission intensity with excitation at 460 nm and Il is emission intensity with excitation at 403 nm. The calibration was performed by measuring the HPTS emission intensities and the pH values of a […] HPTS solution in 10 mM phosphate buffer containing 100 mM NaCl (see FIG. s3). The absolute values for rate constants varied depending on the age of the vesicular solution and the actual stock solution of liposomes used.

[4] = 1H NMR binding experiment in CDCl3, HCl extraction
Experimental: FIG. 7 illustrates a series of […] spectra (400 mHz, CDCl3, 22° C.) of calixarene tetrabutylamide in the presence of different species: (A) the compound alone (5 mm); (B) the compound with 1 equiv. of Bu4 NCl; (C) the compound after washing CDCl3 solution of the compound with an aqueous solution of 0.5 m HCl; (D) after washing CDCl3 solution of the compound with an aqueous solution of 0.5 M H2SO4.
To obtain evidence for Cl^− binding by 2, ^1H NMR experiments were run in CDCl3 using n-Bu4-NCl and HCl as Cl^− sources. Anion receptors usually show chemical shift perturbation upon anion complexation, particularly for amide NH protons that hydrogen bond to the anion. […] Calix[4]arene tetrabutylamide 2 does, however, bind HCl. Thus, shaking a CDCl3 solution of 2 with aqueous HCl led to disappearance of the amide NH proton and a significant upfield shift of the […] protons (FIG. 4c).

Compound	drop in rate constant on changing extravesicular electrolyte from NaCl to CsCl [1] [fold]	transport activity when buffer changed from NaCl to Na2SO4 [1]	Initial Pseudo-first Order Transport Rate Constants, Na2SO4 ([1]; 5 μM, 100 mM Na2SO4 inside pH 6.4 and outside pH 7.4, not corrected for unmediated exchange)	Initial Pseudo-first Order Transport Rate Constants, CsCl ([1]; 5 μM, 100 mM NaCl inside pH 6.4, 100 mM CsCl outside pH 7.4, not corrected for unmediated exchange)	Initial Pseudo-first Order Transport Rate Constants, KCl ([1]; 5 μM, 100 mM NaCl inside pH 6.4, 100 mM KCl outside pH 7.4, not corrected for unmediated exchange)	Initial Pseudo-first Order Transport Rate Constants, NaCl ([1]; 5 μM, 100 mM NaCl inside pH 6.4, 100 mM NaCl outside pH 7.4, not corrected for unmediated exchange)	rate constant k of ion transport ([1]; Na2SO4 loaded vesicles in isotonic buffer) [s⁻¹]	rate constant k of ion transport ([1]; NaCl buffer) [s⁻¹]	cation selectivity of ion transport ([1]; buffers containing Na, K or Cs)	change of intravesicular pH / pH gradient formation [2]	ion transport ([1]; 50 μM)	transport activity [3]	HCl binding [4]
CCCCN(CCCC)C(=O)COc1c2cccc1Cc1cccc(c1OCC(=O)N(CCCC)CCCC)Cc1cccc(c1OCC(=O)N(CCCC)CCCC)Cc1cccc(c1OCC(=O)N(CCCC)CCCC)C2 [calix[4]arene octabutylamide 3, Calix[4]arene Octabutylamide]	3.5	still mediated significant ion transport	9.1^b,d ×10^−3 s^−1	5.4^b,c ×10^−3 s^−1	12^b,c ×10^−3 s^−1	19^b,c ×10^−3 s^−1	0.0091	0.019	discriminates between monovalent cations	did not result in formation of a pH gradient	–	–	–
CCCCNC(=O)COc1ccccc1 [Monomer 1, N-butyl-2-phenoxyacetamide]	–	–	–	–	–	–	–	–	–	–	no ion transport	some activity	no HCl binding
